In the supplement of paper PMC8149375:

Columns and labels:
Conditions in all cases: treatment: drug alone; 5 days
ACHN [1] = experiment: AUC of dose-response viability curve, drug alone (arbitrary (AUC of normalised viability)); higher = less growth inhibition
Procedure: (§1)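 Primary HTS: 8 RCC cell lines treated with 8 doses (up to 10 uM) of each library drug alone for 5 days; viability read by CellTiter-Glo and normalised to DMSO. GI50 was fitted with XLfit (4-parameter), AUC is the area under the dose-response curve, and minimum viability is the lowest fraction of DMSO viability across doses.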

CAKI-1 [2] = experiment: as above
Procedure: as §1

UO-31 [3] = experiment: as above
Procedure: as §1

TK-10 [4] = experiment: as above
Procedure: as §1

769-P [5] = experiment: as above
Procedure: as §1

SN12C [6] = experiment: as above
Procedure: as §1

786-O [7] = experiment: as above
Procedure: as §1

A498 [8] = experiment: as above
Procedure: as §1

ACHN [9] = experiment: GI50, drug alone; higher = less potent
Procedure: as §1

CAKI-1 [10] = experiment: GI50, drug alone; higher = less potent
Procedure: as §1

UO-31 [11] = experiment: GI50, drug alone; higher = less potent
Procedure: as §1

TK-10 [12] = experiment: GI50, drug alone; higher = less potent
Procedure: as §1

769-P [13] = experiment: GI50, drug alone; higher = less potent
Procedure: as §1

SN12C [14] = experiment: GI50, drug alone; higher = less potent
Procedure: as §1

786-O [15] = experiment: GI50, drug alone; higher = less potent
Procedure: as §1

A498 [16] = experiment: GI50, drug alone; higher = less potent
Procedure: as §1

ACHN [17] = experiment: minimum viability across doses, drug alone, relative to DMSO (fraction); higher = less growth inhibition
Procedure: as §1

CAKI-1 [18] = experiment: as above
Procedure: as §1

UO-31 [19] = experiment: as above
Procedure: as §1

TK-10 [20] = experiment: as above
Procedure: as §1

769-P [21] = experiment: as above
Procedure: as §1

SN12C [22] = experiment: as above
Procedure: as §1

786-O [23] = experiment: as above
Procedure: as §1

A498 [24] = experiment: as above
Procedure: as §1

GI50, drug alone (ACHN [9]) [µM]	GI50, drug alone (786-O [15]) [µM]	SMILES	AUC of dose-response viability curve (ACHN [1])	AUC of dose-response viability curve (CAKI-1 [2])	AUC of dose-response viability curve (UO-31 [3])	AUC of dose-response viability curve (TK-10 [4])	AUC of dose-response viability curve (769-P [5])	AUC of dose-response viability curve (SN12C [6])	AUC of dose-response viability curve (786-O [7])	AUC of dose-response viability curve (A498 [8])	GI50, drug alone (CAKI-1 [10]) [µM]	GI50, drug alone (UO-31 [11]) [µM]	GI50, drug alone (TK-10 [12]) [µM]	GI50, drug alone (769-P [13]) [µM]	GI50, drug alone (SN12C [14]) [µM]	GI50, drug alone (A498 [16]) [µM]	minimum viability across doses (ACHN [17])	minimum viability across doses (CAKI-1 [18])	minimum viability across doses (UO-31 [19])	minimum viability across doses (TK-10 [20])	minimum viability across doses (769-P [21])	minimum viability across doses (SN12C [22])	minimum viability across doses (786-O [23])	minimum viability across doses (A498 [24])
1.83	0.523	O=C(O)c1ccc(Nc2ncc3c(n2)-c2ccc(Cl)cc2C(c2c(F)cccc2F)=NC3)cc1 [MLN8054]	2.48	2.84	3.59	2.93	2.85	3.01	2.52	3.53	3.18	> 10	> 10	5.56	6.21	> 10	0.246	0.4	0.748	0.668	0.365	0.427	0.038	0.562
0.207	0.0711	COc1cc(Nc2ncc3c(n2)-c2ccc(Cl)cc2C(c2c(F)cccc2OC)=NC3)ccc1C(=O)O [MLN8237 (Alisertib)]	1.81	2.31	3.14	2.78	2.44	2.85	1.47	3.27	0.67	> 10	7.87	0.888	3.14	> 10	0.194	0.221	0.531	0.492	0.316	0.458	0.0512	0.569
9.54	5.57	Cc1ccc(NC(=O)c2ccc(CN3CCN(C)CC3)cc2)cc1Nc1nc(-c2cccnc2)cs1 [Masitinib (AB1010)]	3.23	3.47	4.02	3.39	3.32	3.01	3.22	3.2	> 10	> 10	> 10	> 10	5.8	> 10	0.482	0.784	1	0.651	0.749	0.292	0.168	0.635
> 10	> 10	CC1(C)CNc2cc(NC(=O)c3cccnc3NCc3ccncc3)ccc21.O=P(O)(O)O.O=P(O)(O)O [Motesanib Diphosphate]	3.4	3.36	4.68	3.09	3.53	3.19	3.26	3.77	> 10	> 10	> 10	> 10	> 10	> 10	0.818	0.756	0.976	0.757	0.943	0.832	0.777	0.86
